Source: ChEMBL document CHEMBL4627329, “Regioselective synthesis and evaluation of 2-amino 3-cyano chromene-chrysin hybrids as potential anticancer agents” (Bioorg Med Chem Lett, 2020)
Active and inactive are the calls of the source. The rule behind the calls is not given here.

What was measured:
PC-3 = assay: Antiproliferative activity against human PC3 cells assessed as inhibition of cell proliferation incubated for 48 hrs by MTT assay; type: functional, cell-based; settings: PC-3, 48 h
NCI-H1299 = assay: Antiproliferative activity against human NCI-H1299 cells assessed as inhibition of cell proliferation incubated for 48 hrs by MTT assay; type: functional, cell-based; settings: NCI-H1299, 48 h
A549 = assay: Antiproliferative activity against human A549 cells assessed as inhibition of cell proliferation incubated for 48 hrs by MTT assay; type: functional, cell-based; settings: A549, 48 h
K562 [1] = assay: Antiproliferative activity against human K562 cells assessed as inhibition of cell proliferation incubated for 48 hrs by MTT assay; type: functional, cell-based; settings: K562, 48 h
K562 [2] = assay: Induction of apoptosis in human K562 cells assessed as upregulation of Bax protein expression measured after 24 hrs by Western blot analysis; type: functional, cell-based
K562 [3] = assay: Induction of apoptosis in human K562 cells assessed as downregulation of Bcl-2 protein measured after 24 hrs by Western blot analysis; type: functional, cell-based
K562 [4] = assay: Cell cycle arrest in human K562 cells assessed as decrease in cell population at S phase at 5 uM measured after 24 hrs by flow cytometry analysis; type: functional, cell-based
K562 [5] = assay: Induction of apoptosis in human K562 cells at assessed as necrotic cells at 20 uM measured after 24 hrs by AnnexinV-FITC/propidium iodide staining based flow cytometry (reference value: 0.518 %); type: functional
K562 [6] = assay: Induction of apoptosis in human K562 cells at assessed as live cells at 10 uM measured after 24 hrs by AnnexinV-FITC/propidium iodide staining based flow cytometry (reference value: 96 %); type: functional
K562 [7] = assay: Induction of apoptosis in human K562 cells at assessed as necrotic cells at 10 uM measured after 24 hrs by AnnexinV-FITC/propidium iodide staining based flow cytometry (reference value: 0.518 %); type: functional
K562 [8] = assay: Induction of apoptosis in human K562 cells at assessed as late apoptotic cells at 20 uM measured after 24 hrs by AnnexinV-FITC/propidium iodide staining based flow cytometry (reference value: 2.06 %); type: functional
K562 [9] = assay: Cell cycle arrest in human K562 cells assessed as increase in cell population at G1 phase at 5 uM measured after 24 hrs by flow cytometry analysis; type: functional, cell-based
K562 [10] = assay: Induction of apoptosis in human K562 cells at assessed as live cells at 5 uM measured after 24 hrs by AnnexinV-FITC/propidium iodide staining based flow cytometry (reference value: 96 %); type: functional
K562 [11] = assay: Induction of apoptosis in human K562 cells measured after 24 hrs by AnnexinV-FITC/propidium iodide staining based flow cytometry; type: functional, cell-based
K562 [12] = assay: Induction of apoptosis in human K562 cells at assessed as early apoptotic cells at 5 uM measured after 24 hrs by AnnexinV-FITC/propidium iodide staining based flow cytometry (reference value: 1.45 %); type: functional
K562 [13] = assay: Induction of apoptosis in human K562 cells at assessed as early apoptotic cells at 10 uM measured after 24 hrs by AnnexinV-FITC/propidium iodide staining based flow cytometry (reference value: 1.45 %); type: functional
K562 [14] = assay: Induction of apoptosis in human K562 cells at assessed as late apoptotic cells at 5 uM measured after 24 hrs by AnnexinV-FITC/propidium iodide staining based flow cytometry (reference value: 2.06 %); type: functional
K562 [15] = assay: Induction of apoptosis in human K562 cells at assessed as live cells at 20 uM measured after 24 hrs by AnnexinV-FITC/propidium iodide staining based flow cytometry (reference value: 96 %); type: functional
MRC5 = assay: Cytotoxicity against human MRC5 cells assessed as inhibition of cell proliferation incubated for 48 hrs by MTT assay; type: cell-based; settings: MRC5, 48 h
K562 [16] = assay: Induction of apoptosis in human K562 cells at assessed as late apoptotic cells at 10 uM measured after 24 hrs by AnnexinV-FITC/propidium iodide staining based flow cytometry (reference value: 2.06 %); type: functional
K562 [17] = assay: Induction of apoptosis in human K562 cells at 5 to 20 uM measured after 24 hrs by AO-EB staining based fluorescence microscopy analysis; type: functional, cell-based
K562 [18] = assay: Induction of apoptosis in human K562 cells at assessed as early apoptotic cells at 20 uM measured after 24 hrs by AnnexinV-FITC/propidium iodide staining based flow cytometry (reference value: 1.45 %); type: functional
K562 [19] = assay: Induction of apoptosis in human K562 cells at assessed as necrotic cells at 5 uM measured after 24 hrs by AnnexinV-FITC/propidium iodide staining based flow cytometry (reference value: 0.518 %); type: functional

| SMILES | IC50 (PC-3) [µM] | IC50 (NCI-H1299) [µM] | IC50 (A549) [µM] | IC50 (K562 [1]) [µM] | further results |
| --- | --- | --- | --- | --- | --- |
| N#CC1=C(N)Oc2cc3oc(-c4ccccc4)cc(=O)c3c(O)c2C1c1ccccc1 (stereo unspecified) | 46.9 | > 50 | 31.6 | 43 |  |
| COc1cccc(C2C(C#N)=C(N)Oc3cc4oc(-c5ccccc5)cc(=O)c4c(O)c32)c1OC (stereo unspecified) | > 50 | > 50 | > 50 | 16.8 |  |
| N#CC1=C(N)Oc2cc3oc(-c4ccccc4)cc(=O)c3c(O)c2C1c1ccc(F)cc1 (stereo unspecified) | 26.1 | > 50 | 15.4 | 14.5 |  |
| Cc1ccc(C2C(C#N)=C(N)Oc3cc4oc(-c5ccccc5)cc(=O)c4c(O)c32)c(C)c1 (stereo unspecified) | > 50 | 42 | > 50 | 19.7 |  |
| COc1ccccc1C1C(C#N)=C(N)Oc2cc3oc(-c4ccccc4)cc(=O)c3c(O)c21 (stereo unspecified) | > 50 | > 50 | > 50 | 20.2 |  |
| COc1ccc(C2C(C#N)=C(N)Oc3cc4oc(-c5ccccc5)cc(=O)c4c(O)c32)cc1 (stereo unspecified) | > 50 | 40.1 | > 50 | 38.1 |  |
| COc1ccc(-c2cc(=O)c3c(O)c4c(cc3o2)OC(N)=C(C#N)C4c2ccc(F)cc2)c(OC)c1 (stereo unspecified) | > 50 | 44.8 | > 50 | 45.2 |  |
| N#CC1=C(N)Oc2cc3oc(-c4ccccc4)cc(=O)c3c(O)c2C1c1ccccc1F (stereo unspecified) | 43.2 | 45.3 | 44 | 28.1 |  |

Second part, led by results:

| IC50 (PC-3) [µM] | IC50 (NCI-H1299) [µM] | IC50 (A549) [µM] | IC50 (K562 [1]) [µM] | SMILES | further results |
| --- | --- | --- | --- | --- | --- |
| > 50 | 33.1 | > 50 | 12.4 | N#CC1=C(N)Oc2cc3oc(-c4ccccc4)cc(=O)c3c(O)c2C1c1ccc(Cl)cc1 (stereo unspecified) |  |
| 46.8 | 18.8 | > 50 | 10.1 | N#CC1=C(N)Oc2cc3oc(-c4ccccc4)cc(=O)c3c(O)c2C1c1ccc(Br)cc1 (stereo unspecified) |  |
| 36.8 | 24.2 | > 50 | 6.41 | N#CC1=C(N)Oc2cc3oc(-c4ccccc4)cc(=O)c3c(O)c2C1c1cccc(Br)c1 (stereo unspecified) | Activity (K562 [2]): Dose-dependent effect; Activity (K562 [3]): Dose-dependent effect; Activity (K562 [4]): Dose-dependent effect; Activity (K562 [5]): 2.44%; Activity (K562 [6]): 77.6%; Activity (K562 [7]): 2.84%; Activity (K562 [8]): 7.58%; Activity (K562 [9]): Dose-dependent effect; Activity (K562 [10]): 90.2%; Activity (K562 [11]): Dose-dependent effect; Activity (K562 [12]): 5.87%; Activity (K562 [13]): 14.4%; Activity (K562 [14]): 2.85%; Activity (K562 [15]): 62.4%; IC50 (MRC5): > 100 µM; Activity (K562 [16]): 5.23%; Activity (K562 [17]): Active; Activity (K562 [18]): 27.6%; Activity (K562 [19]): 1.06% |
| 28.4 | 28.5 | 48.5 | 14.8 | Cc1ccc(C2C(C#N)=C(N)Oc3cc4oc(-c5ccccc5)cc(=O)c4c(O)c32)cc1 (stereo unspecified) |  |
| > 50 | > 50 | > 50 | 48.8 | N#CC1=C(N)Oc2cc3oc(-c4ccccc4)cc(=O)c3c(O)c2C1c1ccccc1Br (stereo unspecified) |  |
| 30.4 | 40.8 | 20.5 | 18.6 | N#CC1=C(N)Oc2cc3oc(-c4ccccc4)cc(=O)c3c(O)c2C1c1cccc(F)c1 (stereo unspecified) |  |
| > 50 | > 50 | > 50 | > 50 | COc1c2c(c(O)c3c(=O)cc(-c4ccccc4)oc13)C(c1ccc(C)cc1)C(C#N)=C(N)O2 (stereo unspecified) |  |
| > 50 | 43.4 | > 50 | 14.4 | N#CC1=C(N)Oc2cc3oc(-c4ccccc4)cc(=O)c3c(O)c2C1c1ccccc1Cl (stereo unspecified) |  |
| > 50 | > 50 | > 50 | > 50 | O=c1cc(-c2ccccc2)oc2cc(O)cc(O)c12 [CHRYSIN] | IC50 (MRC5): > 100 µM |
| 41.3 | 40.8 | 31.9 | 15.6 | N#CC1=C(N)Oc2cc3oc(-c4ccccc4)cc(=O)c3c(O)c2C1c1cccc([N+](=O)[O-])c1 (stereo unspecified) |  |
| > 50 | > 50 | > 50 | 47.1 | CC(C)(C)c1ccc(C2C(C#N)=C(N)Oc3cc4oc(-c5ccccc5)cc(=O)c4c(O)c32)cc1 (stereo unspecified) |  |
